In patent EP0476120B1, “PROCESS FOR PREPARING EQUIMOLAR SALTS OF ASPARTIC ACID AND MAGNESIUM, MAGNESIUM ASPARTATE SALT OBTAINED BY SAID PROCESS AND ITS APPLICATIONS” (LA[…] SPINDLER, priority 1990, dated 1991):
“And” between values parts separate entries of the source, which are not always exact repeats. Identical values can stand only once. Like-named read-outs stand apart in the source and are kept apart here.

Tests used:
[1] = tested on: souris; settings: mouse; for animaux ne présentant pas de comportement anxiogène (miction, défécation): controls 20 %; for souris présentant une défécation et une miction émotionnelles: controls 85 p. 100
Protocol: (§1) Ces études ont été réalisées chez des souris mâles, de souche NMRI-Han, réparties au hasard en lots de 15 souris (séries traitées) et 20 souris (série contrôle).
Enfin, l'effet à l'égard des manifestations dites émotionnelles est mesuré sur la miction et la défécation au cours des 3 minutes passées dans le cylindre et permet le calcul d'une DA 50 dite "anti-émotionnelle".
(§2) Les doses ont été calculées selon une progression géométrique de base 700 (correspondant au 1/10 de la DL 50) et de raison 2, soit respectivement 175, 350, 700 et 1400 mg.kg⁻¹.
(§3) Les traitements sont réalisés 60 minutes avant le test.
(§4) Il est identique à celui décrit dans l'exemple précédent.
(§5) Les doses ont été calculées selon une progression géométrique de base 700 (correspondant au 1/10 de la DL 50) et de raison 2, soit respectivement 10,95; 21,9; 43,8; 87,5; 175; 350; 700 mg/kg. […] Les derniers traitements ont été réalisés 60 minutes avant le test.

[2] = tested on: souris; settings: for Animaux tombés (%): controls 20,0
Protocol: Le test dit du "rota-rod" permet de juger le tonus musculaire et la coordination motrice de souris placées sur une tige tournant à vitesse constante.
as §1
La DA 50 s'exprime par la dose qui provoque en moins de 3 minutes la chute de 50 p. 100 des souris placées sur une tige en bois tournant à une vitesse de 16 tours/min (diamètre 1,7 cm). Ce test qui permet de juger de la coordination motrice des souris est adapté de la technique décrite par N.W. DUNHAN and T.S. MIYA (J. Am. Pharm. Assoc. 1957, 46 : 208)
as §2, §3, §4, §5

[3] = tested on: souris; settings: mouse; for nombre de redressements, Total (moyenne): 3 min in cylinder
Text: Les scores d'activité sont fonction de la surface à explorer. Ils sont également fonction de deux motivations contradictoires : la curiosité et la crainte. Il faut enfin savoir que lorsque la surface offerte permet une activité "horizontale" (marche) la curiosité parait l'emporter; par contre lorsque la surface est réduite et conduit à une activité "verticale" (redressements le long des parois d'un cylindre) il semble que la crainte anxieuse soit davantage présente et conduise à une activité soit diminuée, soit cyclique, et apparemment sans focalisation.
as §1
Au sortir de l'actimètre, les souris sont placées dans un cylindre en verre (hauteur 30 cm, diamètre 9 cm) L'exploration anxiogène a été mesurée par le nombre de redressements au cours de la première minute passée dans le cylindre, l'activité basale anxiogène étant considérée dans la même enceinte, entre 1 et 3 minutes.
as §2, §3, §4, §5

[4] = repeated daily dosing (13 days), 10.95 mg/kg P.O., last dose 60 min before test
[5] = repeated daily dosing (13 days), 21.9 mg/kg P.O., last dose 60 min before test
[6] = repeated daily dosing (13 days), 43.8 mg/kg P.O., last dose 60 min before test
[7] = repeated daily dosing (13 days), 87.5 mg/kg P.O., last dose 60 min before test
[8] = repeated daily dosing (13 days), 175 mg/kg P.O., last dose 60 min before test
[9] = repeated daily dosing (13 days), 350 mg/kg P.O., last dose 60 min before test
[10] = repeated daily dosing (13 days), 700 mg/kg P.O., last dose 60 min before test
[11] = single dose 175 mg.kg⁻¹ P.O., 60 min before test
[12] = single dose 350 mg.kg⁻¹ P.O., 60 min before test
[13] = single dose 700 mg.kg⁻¹ P.O., 60 min before test
[14] = single dose 1400 mg.kg⁻¹ P.O., 60 min before test

For α-β-aspartate de magnésium, the “DA 50 (enceinte anxiogène, sujets ne présentant pas de comportement anxieux)” value ([1]; repeated administration over 13 days P.O., limits 11,26 - 68,66 mg/kg) was 27,8 mg/kg and 28 mg/kg and 27,81 mg/kg, the “animaux ne présentant pas de comportement anxiogène (miction, défécation)” value ([1]; repeated dosing (13 days), 175 mg/kg P.O.) was 73,3% and the “animaux ne présentant pas de comportement anxiogène (miction, défécation)” value ([1]; repeated dosing (13 days), 350 mg/kg P.O.) was 60%. The “animaux ne présentant pas de comportement anxiogène (miction, défécation)” value ([1]; repeated dosing (13 days), 700 mg/kg P.O.) was 66,7%, the “animaux ne présentant pas de comportement anxiogène (miction, défécation)” value ([1]; repeated dosing (13 days), 10,95 mg/kg P.O.) was 40% and the “animaux ne présentant pas de comportement anxiogène (miction, défécation)” value ([1]; repeated dosing (13 days), 21,9 mg/kg P.O.) was 40%. For the same substance, the “animaux ne présentant pas de comportement anxiogène (miction, défécation)” value ([1]; repeated dosing (13 days), 43,8 mg/kg P.O.) was 60%, the “animaux ne présentant pas de comportement anxiogène (miction, défécation)” value ([1]; repeated dosing (13 days), 87,5 mg/kg P.O.) was 66,7% and the “souris présentant une défécation et une miction émotionnelles” value ([1]; single dose 175 mg.kg⁻¹ P.O.) was 40%. The “souris présentant une défécation et une miction émotionnelles” value ([1]; single dose 350 mg.kg⁻¹ P.O.) was 53%, the “souris présentant une défécation et une miction émotionnelles” value ([1]; single dose 700 mg.kg⁻¹ P.O.) was 27% and the “souris présentant une défécation et une miction émotionnelles” value ([1]; single dose 1400 mg.kg⁻¹ P.O.) was 73%. The “DA 50 "anti-émotionnelle"” value ([1]; single dose P.O., confidence limits (5 p. 100) 160 - 2082 mg.kg⁻¹) was 577 mg/kg, the “Animaux tombés (%)” value ([2]; mouse, 10,95 mg.kg⁻¹ P.O x13) was 26,6% and the “Animaux tombés (%)” value ([2]; mouse, 21,9 mg.kg⁻¹ P.O x13) was 33,3%. For the same substance, the “Animaux tombés (%)” value ([2]; mouse, 43,8 mg.kg⁻¹ P.O x13) was 46,6%, the “Animaux tombés (%)” value ([2]; mouse, 67,5 mg.kg⁻¹ P.O x13) was 33,3% and the “Animaux tombés (%)” value ([2]; mouse, 175,0 mg.kg⁻¹ P.O x13) was 46,6%. For the same substance, the “Animaux tombés (%)” value ([2]; mouse, 350,0 mg.kg⁻¹ P.O x13) was 33,3%, the “Animaux tombés (%)” value ([2]; mouse, 700,0 mg.kg⁻¹ P.O x13) was 33,3% and the “souris qui chutent de la tige tournante au cours des 3 minutes” value ([2]; mouse, single dose 175 mg.kg⁻¹ P.O., controls 25 %) was 13%. The “DA 50 (réduction du tonus musculaire, rota-rod)” value ([2]; mouse, single dose P.O., Litchfield-Wilcoxon, confidence limits (5 p. 100) 343 - 1091 mg.kg⁻¹) was 612 mg/kg, the “nombre de redressements, 1ère minute (moyenne)” value [3, 4] was 16 and the “nombre de redressements, 2ème minute (moyenne)” value [3, 4] was 11. The “nombre de redressements, 3ème minute (moyenne)” value [3, 4] was 8, the “nombre de redressements, Total (moyenne)” value [3, 4] was 35 and the “nombre de redressements, 1ère minute (moyenne)” value [3, 5] was 14. The “nombre de redressements, 2ème minute (moyenne)” value [3, 5] was 9, the “nombre de redressements, 3ème minute (moyenne)” value [3, 5] was 6 and the “nombre de redressements, Total (moyenne)” value [3, 5] was 29. The “nombre de redressements, 1ère minute (moyenne)” value [3, 6] was 13, the “nombre de redressements, 2ème minute (moyenne)” value [3, 6] was 9 and the “nombre de redressements, 3ème minute (moyenne)” value [3, 6] was 8. For the same substance, the “nombre de redressements, Total (moyenne)” value [3, 6] was 30, the “nombre de redressements, 1ère minute (moyenne)” value [3, 7] was 13 and the “nombre de redressements, 2ème minute (moyenne)” value [3, 7] was 9. The “nombre de redressements, 3ème minute (moyenne)” value [3, 7] was 8, the “nombre de redressements, Total (moyenne)” value [3, 7] was 30 and the “nombre de redressements, 1ère minute (moyenne)” value [3, 8] was 12. The “nombre de redressements, 2ème minute (moyenne)” value [3, 8] was 9, the “nombre de redressements, 3ème minute (moyenne)” value [3, 8] was 8 and the “nombre de redressements, Total (moyenne)” value [3, 8] was 29. For the same substance, the “nombre de redressements, 1ère minute (moyenne)” value [3, 9] was 13, the “nombre de redressements, 2ème minute (moyenne)” value [3, 9] was 10 and the “nombre de redressements, 3ème minute (moyenne)” value [3, 9] was 8. For the same substance, the “nombre de redressements, Total (moyenne)” value [3, 9] was 31, the “nombre de redressements, 1ère minute (moyenne)” value [3, 10] was 14 and the “nombre de redressements, 2ème minute (moyenne)” value [3, 10] was 10. The “nombre de redressements, 3ème minute (moyenne)” value [3, 10] was 9, the “nombre de redressements, Total (moyenne)” value [3, 10] was 33 and the “nombre de redressements, 1ère minute (moyenne)” value [3, 11] was 14. For the same substance, the “nombre de redressements, 2ème minute (moyenne)” value [3, 11] was 8, the “nombre de redressements, 3ème minute (moyenne)” value [3, 11] was 7 and the “nombre de redressements, Total (moyenne)” value [3, 11] was 29. For the same substance, the “nombre de redressements, 1ère minute (moyenne)” value [3, 12] was 15, the “nombre de redressements, 2ème minute (moyenne)” value [3, 12] was 9 and the “nombre de redressements, 3ème minute (moyenne)” value [3, 12] was 6. For the same substance, the “nombre de redressements, Total (moyenne)” value [3, 12] was 30, the “nombre de redressements, 1ère minute (moyenne)” value [3, 13] was 15 and the “nombre de redressements, 2ème minute (moyenne)” value [3, 13] was “augmente significativement”. The “nombre de redressements, 3ème minute (moyenne)” value [3, 13] was 7, the “nombre de redressements, Total (moyenne)” value [3, 13] was 32 and the “nombre de redressements, 2ème minute (moyenne)” value ([3]; single dose 700 mg.kg⁻¹ P.O., 60 min before test, listed as Mag) was 10. For the same substance, the “nombre de redressements, 1ère minute (moyenne)” value [3, 14] was 15, the “nombre de redressements, 2ème minute (moyenne)” value [3, 14] was “augmente significativement” and the “nombre de redressements, 3ème minute (moyenne)” value [3, 14] was 8. For the same substance, the “nombre de redressements, Total (moyenne)” value [3, 14] was 34 and the “nombre de redressements, 2ème minute (moyenne)” value ([3]; single dose 1400 mg.kg⁻¹ P.O., 60 min before test, listed as Mag) was 11.
